Source: patent US6437138B1, “3-pyridyloxymethyl heterocyclic ether compounds useful in controlling chemical synaptic transmission” (priority 1996, dated 2002)
Structures can show the parent of a compound that is named as a salt.

Molecular target: neuronal nicotinic cholinergic channels in IMR-32 cells (Homo sapiens, UniProt P30926+P32297)
Test: 86Rb+ efflux in IMR-32 cells (activation, or inhibition of efflux elicited by (S)-nicotine)
Type: cell-based
Details: 86Rb+ efflux; percent relative to the response elicited by 100 μM (S)-nicotine
From the text: For the purpose of directly evaluating the ability of test compounds to functionally activate or inhibit certain subtypes of neuronal nicotinic cholinergic channels, an assay to determine ^86Rb^+Efflux in IMR-32 cells was employed (Protocol B below).
B. Protocols for the Determination of Functional Effects of Cholinerzic Channel Receptor Ligands on Synaptic Transmission
Cells of the IMR-32 human neuroblastoma clonal cell line (ATCC, Rockville, Md.) were maintained in a log phase of growth according to established procedures (Lukas, 1993). Experimental cells were seeded at a density of 500,000 cells/ml into a 24-well tissue culture dish. Plated cells were allowed to proliferate for at least 48 hours before loading with 2 μCi/ml of ^86Rb^+ (35 Ci/mmol) overnight at 37° C. The ^86Rb^+ efflux assays were performed according to previously published protocols (Lukas, R. J., J. Pharmacol. Exp. Ther., 265: 294-302, 1993) except serum-free Dulbecco's Modified Eagle's Medium was used during the ^86Rb^+ loading, rinsing, and agonist-induced efflux steps.
EC50 data and maximal responses (reported as percent relative to the response elicited by 100 μM (S)-nicotine) are shown for selected compounds of the invention. The inhibition data (given for a larger number of compounds) reflect inhibition of the efflux elicited by 100 μM (S)-nicotine for either a single dose (% inhibition at 1 μM or at 10 μM) or over a range of doses (IC50 of inhibition). […] This finding is in agreement with the results of others who have linked dopamine release, which is dependent upon the ion flux in synaptic transmission, to binding at nicotinic receptors (cf., for example, Lippiello and Caldwell, U.S. Pat. No. 5,242,935, issued Sep. 7, 1993; Caldwell and Lippiello, U.S. Pat. No. 5,248,690, issued Sep. 28, 1993; and Wonnacott et al., Prog. Brain Res., 79: 157-163 (1989)).

Structure (SMILES) | IMR-32 maximal response [%]
Cl.Cl.c1ccc(-c2cncc(OC[C@@H]3CCN3)c2)cc1 [Example 56, 5-Phenyl-3-(2-(S)-azetidinylmethoxy)pyridine Dihydrochloride] | 20

Same assay, conditions: IMR-32; 86Rb+ efflux; percent relative to the response elicited by 100 μM (S)-nicotine; read-out: IMR-32 maximal response

Structure (SMILES) | Emax [%]
CN1CCC[C@@H]1COc1cnc(Cl)c(-c2ccccc2)c1 [Example 69, 5-Phenyl-6-chloro-3-(1-methyl-2-(R)-pyrrolidinylmethoxy)pyridine Dihydrochloride] | 6
Clc1ncc(OC[C@H]2CCCN2)cc1C=Cc1ccncc1 [Example 81, 5-(2-(4-Pyridinyl)ethenyl)-6-chloro-3-(2-(R)-pyrrolidinylmethoxy)pyridine Dihydrochloride] | 32
CC(=O)NCc1cc(OC[C@@H]2CCN2)cnc1Cl [Example 206, 5-Acetamidomethyl-3-(2-(S)-azetidinylmethoxy)-6-chloropyridine Dihydrochloride] | 11
C(=C\c1cncc(OC[C@H]2CCCN2)c1)/c1ccncc1 [Example 86, 5-(2-(4-Pyridinyl)ethenyl)-3-(2-(R)-pyrroylidinylmethoxy)pyridine Trihydrochloride] | 44
C=CCc1cncc(OC[C@@H]2CCN2)c1 [Example 181, 5-Allyl-3-(2-(S)-azetidinylmethoxy)pyridine Hydrochloride] | 82
c1csc(-c2cncc(OC[C@@H]3CCN3)c2)c1 [Example 154, 3-(2-(S)-Azetidinylmethoxy)-5-(2-thienyl)pyridine Dihydrochloride] | 1.5
Clc1ncc(OC[C@@H]2CCN2)cc1-c1ccccc1 [Example 67, 5-Phenyl-6-chloro-3-(2-(S)-azetidinylmethoxy)pyridine Hidrochloride] | 90

Same assay, conditions: IMR-32; inhibition of the efflux elicited by 100 μM (S)-nicotine; single dose 1 μM

Structure (SMILES) | inhibition at 1 µM [%]
COC(=O)C=Cc1cncc(OC[C@@H]2CCCN2C)c1 [Example 16, 5-(2-(Methoxycarbonyl)ethenyl-3-(1-methyl-2-(S)-pyrrolidinylmethoxy)pyridine Dihydrochloride] | 6
CN1CCC[C@H]1COc1cncc(C#CCCCc2ccccc2)c1 [Example 17, 5-(5-Phenyl-1-pentynyl)-3-(1-methyl-2-(S)-pyrrolidinylmethoxy)pyridine Dihydrochloride] | 32
CCCC(=O)C=Cc1cncc(OC[C@@H]2CCCN2C)c1 [Example 22, 5-(3-oxo-1-Hexenyl)-3-(1-methyl-2-(S)-pyrrolidinylmethoxy)pyridinine Dihydrochloride] | 44
COC(=O)CCc1cncc(OC[C@@H]2CCCN2C)c1 [Example 15, 5-(2-(Methoxycarbonyl)ethyl)-3-(1-methyl-2-(S)-pyrrolidinylmethoxy)pyridine Dihydrochloride] | 16
CN1CCC[C@H]1COc1cncc(C#CCCCCO)c1 [Example 28, 5-(6-Hydroxy-1-hexynyl)-3-(1-methyl-2-(S)-pyrrolidipylmethoxy)pyridine Dihydrochloride] | 20
CN1CCC[C@H]1COc1cncc(C#CC(C)(C)C)c1 [Example 47, 5-(3,3-Dimethylbutynyl)-3-(1-methyl-2-(S)-pyrrolidinylmethoxy)pyridine Dihydrochloride] | 66

Same assay, conditions: IMR-32; inhibition of the efflux elicited by 100 μM (S)-nicotine; single dose 10 μM

Structure (SMILES) | inhibition at 10 µM [%]
CN1CCC[C@H]1COc1cncc(C#CCCCc2ccccc2)c1 [Example 17, 5-(5-Phenyl-1-pentynyl)-3-(1-methyl-2-(S)-pyrrolidinylmethoxy)pyridine Dihydrochloride] | 100
COC(=O)CCc1cncc(OC[C@@H]2CCCN2C)c1 [Example 15, 5-(2-(Methoxycarbonyl)ethyl)-3-(1-methyl-2-(S)-pyrrolidinylmethoxy)pyridine Dihydrochloride] | 83

Same assay, conditions: inhibition of the efflux elicited by 100 μM (S)-nicotine; single dose 1 μM

Structure (SMILES) | % Inhibition @ 1 μM [%]
Cl.Cl.c1ccc(-c2cncc(OC[C@@H]3CCN3)c2)cc1 [Example 56, 5-Phenyl-3-(2-(S)-azetidinylmethoxy)pyridine Dihydrochloride] | 16

Tested on: not given
Test: not given
Details: not given

melting point | Structure (SMILES)
183 to 185 °C | Cl.Cl.Clc1ccc(-c2cncc(OC[C@H]3CCCN3)c2)cc1 [Example 139, 5-(4-Chlorophenyl)-3-(2-(R)-pyrrolidinylmethoxy)pyridine Dihydrochloride]
88 to 90 °C | C=Cc1cncc(OC[C@@H]2CCN2)c1.Cl.Cl [Example 162, 3-(2-(S)-Azetidinylmethoxy)-5-ethenylpyridine Dihydrochloride]
145 to 147 °C | CC(C)(C)C=CC=Cc1cncc(OC[C@H]2CCCN2)c1.Cl.Cl [Example 138, 5-(5,5-Dimethyl-1,3-hexadienyl)-3-(2-(R)-pyrrolidinylmethoxy)pyridine Dihydrochloride]
109 to 111 °C | C=CCc1cc(OC[C@@H]2CCN2C)cnc1Cl.Cl [Example 179, 5-Allyl-3-(1-methyl-2-(S)-azetidinylmethoxy)-6-chloropyridine Hydrochloride]
176 to 178 °C | CN1CCC[C@@H]1COc1cnc(Cl)c(-c2ccc(Cl)cc2)c1 (as salt: hydrochloride) [Example 76, 5-(4-Clhorophenyl)-6-chloro-3-(1-methyl-2-(R)-pyrrolidinylmethoxy)pyridine Hydrochloride]
110 to 112 °C | Cl.Cl.Cl.c1ncc(-c2cncc(OC[C@@H]3CCCN3)c2)cn1 [Example 174, 5-(5-Pyrimidinyl)-3-(2-(S)-pyrrolidinylmethoxy)pyridine Trihydrochloride]
86 to 89 °C | Cl.Cl.Clc1ccc(-c2cc(OC[C@@H]3CCCN3)cnc2Cl)cc1 [Example 150, 6-Chloro-5-(4-chlorophenyl)-3-(2-(S)-pyrrolidinylmethoxy)pyridine Dihydrochloride]
185 °C (dec.) | Cl.Cl.c1ncc(-c2cncc(OC[C@@H]3CCN3)c2)cn1 [Example 171, 3-(2-(S)-Azetidinylmethoxy)-5-(5-pyrimidinyl)pyridine Dihydrochloride]
182 to 184 °C | C=Cc1cc(OC[C@@H]2CCCN2C)cnc1Cl.Cl [Example 192, 6-Chloro-5-ethenyl-3-(1-methyl-2-(S)-pyrrolidinylmethoxy)pyridine Hydrochloride]
152 to 156 °C | C=Cc1cncc(OC[C@@H]2CCCN2C)c1.Cl.Cl [Example 8, 5-Ethenyl-3-(1-methyl-2-(S)-pyrrolidinylmethoxy)pyridine Dihydrochloride]
210 °C (dec.) | Cl.Clc1ncc(OC[C@H]2CCCN2)cc1-c1cncnc1 [Example 173, 6-Chloro-5-(5-pyrimidinyl)-3-(2-(R)-pyrrolidinylmethoxy)pyridine Hydrochloride]
90 to 92 °C | C=CCc1cc(OC[C@H]2CCCN2)cnc1Cl.Cl [Example 185, 5-Allyl-6-chloro-3-(2-(R)-pyrrolidinylmethoxy)pyridine Hydrochloride]
200 to 202 °C | CN1CCC[C@H]1COc1cnc(Cl)c(-c2cncnc2)c1.Cl [Example 182, 6-Chloro-3-(1-methyl-2-(S)-pyrrolidinylmethoxy)-5-(5-pyrimidinyl)pyridine Hydrochloride]
97 °C (dec.) | C=Cc1cncc(OC[C@@H]2CCCN2)c1.Cl.Cl [Example 164, 5-Ethenyl-3-(2-(S)-pyrrolidinylmethoxy)pyridine Dihydrochloride]
160 to 163 °C | CN1CCC[C@H]1COc1cnc(Cl)c(-c2cccs2)c1.Cl.Cl [Example 153, 6-Chloro-3-(1-methyl-2-(S)-pyrrolidinylmethoxy)-5-(2-thienyl)pyridine Dihydrochloride]
182 to 184 °C | C=Cc1cc(OC[C@H]2CCCN2)cnc1Cl.Cl [Example 167, 6-Chloro-5-ethenyl-3-(2-(R)-pyrrolidinylmethoxy)pyridine Hydrochloride]
240 to 242 °C | Cl.Cl.Cl.Nc1cccc(-c2cncc(OC[C@H]3CCCN3)c2)c1 [Example 88, 5-(3-Aminophenyl)-3-(2-(R)-pyrrolidinylmethoxy)pyridine Trihydrochloride]
196 to 197 °C | COCCOc1cncc(OC[C@@H]2CCCN2C)c1 (as salt: hydrochloride) [Example 198, 5-Methoxyethoxy-3-(1-methyl-(2S)-pyrrolidinylmethoxy)pyridine Dihydrochloride]

Structure (SMILES) | melting point
COC(=O)c1cncc(OC[C@@H]2CCCN2C)c1 (as salt: hydrochloride) [Example 27, 5-Methoxycarbonol-3-(1-methyl-2-(S)-pyrrolidinylmethoxy)pyridine Dihydrochloride] | 165 to 167 °C
CN1CCC[C@H]1COc1cncc(-c2ccc3ccccc3c2)c1 (as salt: hydrochloride) [Example 31, 5-(2-Naphthalenyl-3-(1-methyl-2-(S)-pyrrolidinylmethoxy)pyridine Dihydrochloride] | 248 to 251 °C
CN1CCC[C@H]1COc1cncc(C=Cc2ccncc2)c1 (as salt: hydrochloride) [Example 13, 5-(2-(4-Pyridinyl)ethenylyl)-3-((1-methyl-2-(S)-pyrrolidinylmethoxy)pyridine Triihydrochloride] | 187 to 190 °C
CN1CCC[C@H]1COc1cncc(-c2ccc(F)c(Cl)c2)c1 (as salt: hydrochloride) [Example 42, 5-(3-Chloro-4-fluorolphenyl)-3-(1-methyl-2-(S)-pyrrolidinylmethoxy)pyridine Dihydrochloride] | 202 to 204 °C
